Measured values as given in BindingDB's records for doi:10.7270/Q2QJ7FRJ (Nmmlsc, 2009).

Target: Cell division control protein 42 homolog (Homo sapiens, UniProt P60953)
Experiment: inhibition of fluorescent GTP binding to wildtype Cdc42 – biochemical, pyrazoline analogs, multiplex bead flow cytometry, Ki, SAR follow-up (AID 2019)
Settings: not given

Chain of Cell division control protein 42 homolog (P60953 whole entry): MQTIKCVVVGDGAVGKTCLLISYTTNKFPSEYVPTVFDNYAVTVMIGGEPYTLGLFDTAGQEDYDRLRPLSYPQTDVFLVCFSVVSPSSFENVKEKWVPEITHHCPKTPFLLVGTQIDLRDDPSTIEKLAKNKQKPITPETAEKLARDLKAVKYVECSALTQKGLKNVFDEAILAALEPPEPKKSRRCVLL

| SMILES | EC50 |
| --- | --- |
| NS(=O)(=O)c1ccc(N2N=C(c3ccc(Cl)cc3)CC2c2ccccc2)cc1 (centres undefined) | 3.32 µM |
| COc1ccc(C2CC(c3ccc(F)cc3)=NN2c2cccc(F)c2)cc1OC (centres undefined) | 21 µM |
| COc1ccc(C2CC(c3ccc(Cl)cc3)=NN2c2ccc(S(N)(=O)=O)cc2)cc1 (centres undefined) | 2.3 µM |
| COc1ccc(C2CC(c3ccc(C)cc3)=NN2c2ccc(S(N)(=O)=O)cc2)cc1 (centres undefined) | 2.21 µM |
| COc1ccc(C2CC(c3cccc(C(F)(F)F)c3)=NN2c2ccc(S(N)(=O)=O)cc2)cc1 (centres undefined) | 3.11 µM |
| COc1ccc(C2CC(c3cccnc3)=NN2c2ccc(S(N)(=O)=O)cc2)cc1 (centres undefined) | 9.51 µM |
| NS(=O)(=O)c1ccc(N2N=C(c3ccccc3)CC2c2ccc(Cl)cc2)cc1 (centres undefined) [4-[3-(4-chlorophenyl)-5-phenyl-3,4-dihydropyrazol-2-yl]benzenesulfonamide] | 2.76 µM |
| COc1ccc(C2CC(c3ccccc3Cl)=NN2c2ccc(S(N)(=O)=O)cc2)cc1 (centres undefined) [4-[5-(2-chlorophenyl)-3-(4-methoxyphenyl)-3,4-dihydropyrazol-2-yl]benzenesulfonamide] | 2.59 µM |
| COc1ccc(C2CC(c3cccc(F)c3)=NN2c2ccc(S(N)(=O)=O)cc2)cc1 (centres undefined) [4-[5-(3-fluorophenyl)-3-(4-methoxyphenyl)-3,4-dihydropyrazol-2-yl]benzenesulfonamide] | 2.86 µM |
| COc1ccc(C2CC(c3cccc(OC)c3)=NN2c2ccc(S(N)(=O)=O)cc2)cc1 (centres undefined) [4-[5-(3-methoxyphenyl)-3-(4-methoxyphenyl)-3,4-dihydropyrazol-2-yl]benzenesulfonamide] | 1.46 µM |
| COc1ccc(C2CC(c3ccc(F)cc3)=NN2c2ccc(S(N)(=O)=O)cc2)cc1 (centres undefined) [4-[5-(4-fluorophenyl)-3-(4-methoxyphenyl)-3,4-dihydropyrazol-2-yl]benzenesulfonamide] | 4.26 µM |
| O=S(=O)(O)c1ccc(N2N=C(c3ccccc3)CC2c2ccccc2)cc1 (centres undefined) [UNM-0000305834] | 30 µM |

Same assay, conditions: inactive by the depositor's call

| SMILES | EC50 |
| --- | --- |
| Cc1onc(-c2ccccc2)c1-c1ccc(S(N)(=O)=O)cc1 | 30 µM |
| O=[N+]([O-])c1ccc([N+]2=N[C-](c3ccccc3)CC2c2ccccc2)cc1 (centres undefined) | 30 µM |
| Brc1ccc(N2N=C(c3ccccc3)CC2c2ccccc2)cc1 (centres undefined) | 30 µM |
| COc1ccccc1C1CC(c2ccccc2)=NN1c1ccccc1 (centres undefined) | 30 µM |
| Clc1cccc(N2N=C(c3ccccc3)CC2c2ccccc2)c1 (centres undefined) | 30 µM |
| Clc1ccc(N2N=C(c3ccccc3)CC2c2ccccc2)cc1 (centres undefined) | 30 µM |
| CC(=O)Oc1ccc(C2=NN(c3ccccc3)C(c3ccccc3)C2)cc1 (centres undefined) | 30 µM |
| O=C(O)c1ccc(N2N=C(c3ccccc3)CC2c2ccccc2)cc1 (centres undefined) | 30 µM |
| COc1ccc(C2=NN(c3ccccc3)C(c3ccccc3C(F)(F)F)C2)cc1 (centres undefined) | 34.4 µM |
| O=S(=O)(c1ccc(N2N=C(c3ccccc3)CC2c2ccccc2)cc1)C(F)F (centres undefined) | 0.231 µM |
| CCc1ccc(C2=NN(c3ccc(S(N)(=O)=O)cc3)C(c3ccc(F)cc3)C2)cc1 (centres undefined) | 30 µM |
| CN(C)c1ccc(C2C[C-](c3ccccc3)N=[N+]2c2ccc([N+](=O)[O-])cc2)cc1 (centres undefined) | 30 µM |
| COc1ccc(C2CC(c3ccccc3)=NN2c2ccc(Cl)c(C(=O)O)c2)cc1 (centres undefined) | 30 µM |
| COc1ccc(C2CC(c3cccc(N(C)C)c3)=NN2c2ccc(S(N)(=O)=O)cc2)cc1 (centres undefined) | 30 µM |
| COc1ccc(C2CC(c3ccncc3)=NN2c2ccc(S(N)(=O)=O)cc2)cc1 (centres undefined) | 30 µM |
| Fc1ccccc1C1CC(c2ccc(Br)cc2)=NN1c1ccc(Br)cc1 (centres undefined) [2,5-bis(4-bromophenyl)-3-(2-fluorophenyl)-3,4-dihydropyrazole] | 30 µM |
| COc1ccc(C2CC(c3ccc(F)cc3)=NN2c2cc(Cl)ccc2Cl)cc1 (centres undefined) [2-(2,5-dichlorophenyl)-5-(4-fluorophenyl)-3-(4-methoxyphenyl)-3,4-dihydropyrazole] | 30 µM |
| COc1ccc(C2=NN(c3ccc(Cl)c(Cl)c3)C(c3ccc(OC)cc3)C2)cc1 (centres undefined) [2-(3,4-dichlorophenyl)-3,5-bis(4-methoxyphenyl)-3,4-dihydropyrazole] | 30 µM |
| Fc1ccc(C2=NN(c3cccc(Br)c3)C(c3ccccc3)C2)cc1 (centres undefined) [2-(3-bromophenyl)-5-(4-fluorophenyl)-3-phenyl-3,4-dihydropyrazole] | 30 µM |

| SMILES | EC50 |
| --- | --- |
| COc1ccc(C2=NN(c3cccc(F)c3)C(c3ccc(OC)cc3)C2)cc1 (centres undefined) [2-(3-fluorophenyl)-3,5-bis(4-methoxyphenyl)-3,4-dihydropyrazole] | 30 µM |
| COc1ccc(C2CC(c3ccccc3)=NN2c2ccc(Cl)c(C(=O)O)c2)cc1OC (centres undefined) [2-chloro-5-[3-(3,4-dimethoxyphenyl)-5-phenyl-3,4-dihydropyrazol-2-yl]benzoic acid] | 30 µM |
| COc1ccc(C2=NN(c3cccc(F)c3)C(c3ccc(Cl)cc3)C2)cc1 (centres undefined) [3-(4-chlorophenyl)-2-(3-fluorophenyl)-5-(4-methoxyphenyl)-3,4-dihydropyrazole] | 30 µM |
| COc1ccc(C2C[C-](c3ccccc3)N=[N+]2c2ccc([N+](=O)[O-])cc2)cc1 (centres undefined) [3-(4-methoxyphenyl)-2-(4-nitrophenyl)-5-phenyl-3,4-dihydropyrazole] | 30 µM |
| COc1ccc(C2CC(c3ccccc3)=NN2c2cccc(S(N)(=O)=O)c2)cc1 (centres undefined) [3-[3-(4-methoxyphenyl)-5-phenyl-3,4-dihydropyrazol-2-yl]benzenesulfonamide] | 30 µM |
| CN(C)c1ccc(C2CC(c3ccccc3)=NN2c2ccccc2)cc1 (centres undefined) [4-(2,5-diphenyl-3,4-dihydropyrazol-3-yl)-N,N-dimethylaniline] | 30 µM |
| NS(=O)(=O)c1ccc(N2N=C(c3ccccc3)CC2c2ccccc2)cc1 (centres undefined) [4-(3,5-diphenyl-3,4-dihydropyrazol-2-yl)benzenesulfonamide] | 30 µM |
| NS(=O)(=O)c1ccc(N2N=C(c3ccccc3)CC2c2ccccc2Br)cc1 (centres undefined) [4-[3-(2-bromophenyl)-5-phenyl-3,4-dihydropyrazol-2-yl]benzenesulfonamide] | 30 µM |
| COc1ccc(C2CC(c3ccc(C(F)(F)F)cc3)=NN2c2ccc(S(N)(=O)=O)cc2)cc1 (centres undefined) [4-[3-(4-methoxyphenyl)-5-[4-(trifluoromethyl)phenyl]-3,4-dihydropyrazol-2-yl]benzenesulfonamide] | 30 µM |
| COc1ccc(C2CC(C)=NN2c2ccc(S(N)(=O)=O)cc2)cc1 (centres undefined) [4-[3-(4-methoxyphenyl)-5-methyl-3,4-dihydropyrazol-2-yl]benzenesulfonamide] | 30 µM |
| NS(=O)(=O)c1ccc(N2N=C(c3ccc(Br)cc3)CC2c2ccc(F)cc2)cc1 (centres undefined) [4-[5-(4-bromophenyl)-3-(4-fluorophenyl)-3,4-dihydropyrazol-2-yl]benzenesulfonamide] | 30 µM |
| COc1ccc(-c2cc(-c3ccccc3)nn2-c2ccc(S(N)(=O)=O)cc2)cc1 [4-[5-(4-methoxyphenyl)-3-phenylpyrazol-1-yl]benzenesulfonamide] | 5.05 µM |
| COc1ccc(C2CC(C3CCCCC3)=NN2c2ccc(S(N)(=O)=O)cc2)cc1 (centres undefined) [4-[5-cyclohexyl-3-(4-methoxyphenyl)-3,4-dihydropyrazol-2-yl]benzenesulfonamide] | 30 µM |
| O=S(=O)(c1ccc(N2N=C(c3ccc(Br)cc3)CC2c2ccccc2)cc1)C(F)F (centres undefined) [5-(4-bromophenyl)-2-[4-(difluoromethylsulfonyl)phenyl]-3-phenyl-3,4-dihydropyrazole] | 30 µM |
| FC(F)(F)c1ccccc1C1CC(c2ccc(Br)cc2)=NN1c1ccccc1 (centres undefined) [5-(4-bromophenyl)-2-phenyl-3-[2-(trifluoromethyl)phenyl]-3,4-dihydropyrazole] | 30 µM |
| O=[N+]([O-])c1cccc(C2C[C-](c3ccc(F)cc3)N=[N+]2c2ccccc2)c1 (centres undefined) [5-(4-fluorophenyl)-3-(3-nitrophenyl)-2-phenyl-3,4-dihydropyrazole] | 30 µM |
| Cc1ccc(-c2cc(C(F)(F)F)nn2-c2ccc(S(N)(=O)=O)cc2)cc1 [Celecoxib] | 30 µM |
| COc1ccc(C2CC(c3ccc(N(C)C)cc3)=NN2c2ccc(S(N)(=O)=O)cc2)cc1 (centres undefined) [KUC103422N] | 3.37 µM |
| COc1ccc(C2CC(C(C)(C)C)=NN2c2ccc(S(N)(=O)=O)cc2)cc1 (centres undefined) [KUC103450N] | 30 µM |

| SMILES | EC50 |
| --- | --- |
| COc1ccc(C2CC(c3ccccc3C(F)(F)F)=NN2c2ccc(S(N)(=O)=O)cc2)cc1 (centres undefined) [KUC103474N] | 30 µM |
| Cc1ccccc1N1N=C(c2ccccc2)CC1c1ccc(N(C)C)cc1 (centres undefined) [N,N-dimethyl-4-[2-(2-methylphenyl)-5-phenyl-3,4-dihydropyrazol-3-yl]aniline] | 30 µM |
| COc1ccc(C2CC(c3ccc(Br)cc3)=NN2c2ccccc2Cl)cc1 (centres undefined) [UNM-0000305832] | 30 µM |
| COc1ccc(C2=NN(c3ccccc3)C(c3ccc(Cl)cc3)C2)cc1 (centres undefined) [UNM-0000305833] | 30 µM |
| Cc1cccc(N2N=C(c3ccccc3)CC2c2ccccc2)c1 (centres undefined) [UNM-0000305835] | 30 µM |
| O=[N+]([O-])c1ccc([N+]2=N[C-](c3ccccc3)CC2c2ccc(O)cc2)cc1 (centres undefined) [UNM-0000305838] | 30 µM |
| CN(C)c1ccc(C2CC(c3ccc(Br)cc3)=NN2c2ccccc2)cc1 (centres undefined) [UNM-0000305846] | 30 µM |
| CN(C)c1ccc(C2CC(c3ccc(Cl)cc3)=NN2c2ccccc2)cc1 (centres undefined) [UNM-0000305847] | 30 µM |
| COc1ccc(C2=NN(c3ccccc3)C(c3ccc(OC)c(OC)c3C(=O)O)C2)cc1 (centres undefined) [UNM-0000305848] | 30 µM |
| Cc1ccccc1[N+]1=N[C-](c2ccccc2)CC1c1cccc([N+](=O)[O-])c1 (centres undefined) [UNM-0000305854] | 30 µM |
| COc1ccccc1N1N=C(c2ccccc2)CC1c1ccccc1 (centres undefined) [UNM-0000305855] | 30 µM |
| O=[N+]([O-])c1cccc(C2C[C-](c3ccccc3)N=[N+]2c2ccccc2)c1 (centres undefined) [UNM-0000305857] | 30 µM |
| COc1ccc(C2CC(c3ccc(Cl)cc3)=NN2c2ccccc2)cc1OC (centres undefined) [UNM-0000305858] | 30 µM |
| FC(F)(F)c1cccc(N2N=C(c3ccc(Cl)cc3)CC2c2ccccc2Cl)c1 (centres undefined) [UNM-0000305859] | 30 µM |
| COc1ccc(C2=NN(c3ccccc3F)C(c3ccc(F)cc3)C2)cc1 (centres undefined) [UNM-0000305860] | 30 µM |
| COc1ccc(C2=NN(c3ccc(Cl)cc3)C(c3ccccc3F)C2)cc1 (centres undefined) [UNM-0000305863] | 30 µM |
| COc1ccc(C2CC(c3ccc(F)cc3)=NN2c2ccccc2)cc1OC (centres undefined) [UNM-0000305864] | 30 µM |
| CN(C)c1ccc(C2CC(c3ccc(F)cc3)=NN2c2ccccc2)cc1 (centres undefined) [UNM-0000305866] | 30 µM |
| COc1ccc(C2CC(c3ccccc3)=NN2c2ccc(C(N)=O)cc2)cc1 (centres undefined) [UNM-0000305870] | 30 µM |
